# Experimental data as given in patent US11524935B2, “Methods for treating attention-deficit/hyperactivity disorder” (priority 2009, dated 2022).
# “Also recorded” adds a separate entry of the source. Counter-ions that a name gives are not always drawn.
# Assays:
# [1] = system: homozygous mutant dopamine transporter KO mice; test: spontaneous activity in the open field, dopamine transporter KO mice; type: in vivo, mouse
# Protocol: Male and female wild-type and homozygous mutant dopamine transporter KO mice (n−10 mice/genotype/agent) were tested for spontaneous activity in the open field following a single injection of the vehicle or compound. […] All drugs, were given in a volume of 5 mL/kg. Animals were returned to the open field for an additional 90 min. Spontaneous activity was evaluated in an automated Omnitech Digiscan apparatus (Accuscan Instruments, Columbus, Ohio). Activity was summated at 5 min intervals over the 2 h period of testing. Horizontal activity or locomotion was Measured in terms of toe total distance covered in cm, vertical activity or rearing was expressed in terms of the total numbers of vertical beam breaks, and stereotypy was quantified in terms of repetitive breaks of a given beam or beams with intervals of less than 1 sec. For the analyses, 10 WT and 10 KO mice were run in each of the treatment groups with approximately equal numbers of males and females assigned to each group. Data were analyzed by the Statistical Package for Social Sciences programs (version 11.0 for Windows; SPSS Science, Chicago, Ill.). The results lot each dependent variable were analyzed by repeated analyses of variance. (RMANOVA) for within subjects effects (group differences over time) and between-subjects effects (tests of main effects and interactions). Bonferroni corrected pair-wise comparisons were used as the post-hoc tests. A p<0.05 was considered significant.
# wild-type mice = test: spontaneous activity in the open field, wild-type mice; type: in vivo, mouse; conditions: 2 mg/kg SC, relative to vehicle controls
# Protocol: Male and female wild-type and homozygous mutant dopamine transporter KO mice (n−10 mice/genotype/agent) were tested for spontaneous activity in the open field following a single injection of the vehicle or compound. Mice were placed into the open field for 30 min and administered SC the vehicle (sterile water) 2 mg/kg amphetamine, or three concentrations of the test compound (10, 30, 100 mg/kg). All drugs, were given in a volume of 5 mL/kg. Animals were returned to the open field for an additional 90 min. Spontaneous activity was evaluated in an automated Omnitech Digiscan apparatus (Accuscan Instruments, Columbus, Ohio). Activity was summated at 5 min intervals over the 2 h period of testing. Horizontal activity or locomotion was Measured in terms of toe total distance covered in cm, vertical activity or rearing was expressed in terms of the total numbers of vertical beam breaks, and stereotypy was quantified in terms of repetitive breaks of a given beam or beams with intervals of less than 1 sec. For the analyses, 10 WT and 10 KO mice were run in each of the treatment groups with approximately equal numbers of males and females assigned to each group. Data were analyzed by the Statistical Package for Social Sciences programs (version 11.0 for Windows; SPSS Science, Chicago, Ill.). The results lot each dependent variable were analyzed by repeated analyses of variance. […]
# Long-Evans rats = test: reversal of a visual discrimination (operant, Phase II reversal training); type: in vivo, rat
# Protocol: Forty adult male Long-Evans rats (Charles River Laboratories, Wilmington, Mass.) approximately 250 g at the start of training were used as subjects in this study. Each shipment of rats went through five-day isolation prior to introduction to the general population. Rats were allowed a minimum of one additional week acclimation before operant training began.
# Test compound was dissolved in sterile 0.9% saline at 3.0, 10.0, and 30.0 mg/mL, D-amphetamine, the reference compound, was also dissolved in 0.9% sterile saline at 1.0 mg/mL of the amphetamine salt.
# After operant training began, rats were housed individually. Access to food was restricted to 12-20 grams per day to maintain animals at 85-90% free feeding body weight (relative to non-restricted rats). Rats were never deprived of water and continued gain weight while in the study.
# After animals reached the training criteria on Phase I of the study, they were designated to one of the treatment groups; groups were matched for performance (days to criterion per in Phase I. The study was a mixed design (dose levels×repeated training sessions). The five dose levels were 1, 3, and 10 mg/kg test compound, 0.9 percent saline (vehicle) and 1.0 mg/kg d-amphetamine sulfate (reference compound) all delivered intraperitoneal (IP) at 1.0 mL/kg.
# Animals were trained in a set of 10 operant testing chambers (Med Associates) containing two retractable response levers on the front wall. There were two stimulus lights in the chamber, one situated over each lever. The food magazine is located between the two response levers on the front wall and food delivery is signaled with a magazine light. Retrieval of the food pellet is detected by a photosensor within the food magazine. Dim illumination of the chamber is provided by a houselight over the center of the front wall.
# Initially animals were shaped to press a lever for food. During this phase, both levers were extended into the chamber and the animal was rewarded with a 45 mg pellet for pressing a lever. The use of a side bias is prevented by retracting a lever once it exceeds five presses beyond the number of presses on the opposite lever. After […] consecutive days with 100 lever presses subjects were moved to Phase I of the study. In this phase, animals had to learn to press the lever beneath the illuminated signal light. On each trial, one of the signal lights (randomly chosen) was illuminated for 1.0 sec prior to presentation of the levers (30.0 sec limited hold). […] After either a correct or incorrect press, or an omission, the levers were retracted for the duration of the variable inter-trial-interval (ITT; 5 s+/−2 s). After stable responding (two consecutive days better than 80% correct) was established in this phase, animals began training in the drug administration portion of the experiment (Phase II).
# In Phase II, animals were divided into five groups matched on percent accuracy and number of trials to criterion. Animals in each group were dosed with one of three doses of test compound ([…], IP), amphetamine (1.0 mg/kg, IP), or with the vehicle (saline) one hour prior to behavioral training. In Phase II the discrimination was reversed from that of Phase I such that animals were now rewarded for pressing the lever distal to the cue light. Animals were dosed daily approximately 60 min prior to training. Training continued until ad animals achieved two consecutive days above 80% correct on the new discrimination.
# Data were analyzed using SPSS 12.0 for Windows (SSPS Inc., Chicago, Ill.). A mixed between groups, repeated measures ANOVA was conducted cm response accuracy data. A simple one-way ANOVA was conducted on the trials to criteria data from Phase II.
# [2] = target: T1, human serotonin transporter (Homo sapiens, UniProt P31645); test: inhibition of [125I]RTI-55 binding to hSERT in HEK293 cell membranes; conditions: HEK-hSERT cells
# T1 construct: expressed in transfected cells; host or cells: HEK293
# T1 sequence (P31645 whole entry): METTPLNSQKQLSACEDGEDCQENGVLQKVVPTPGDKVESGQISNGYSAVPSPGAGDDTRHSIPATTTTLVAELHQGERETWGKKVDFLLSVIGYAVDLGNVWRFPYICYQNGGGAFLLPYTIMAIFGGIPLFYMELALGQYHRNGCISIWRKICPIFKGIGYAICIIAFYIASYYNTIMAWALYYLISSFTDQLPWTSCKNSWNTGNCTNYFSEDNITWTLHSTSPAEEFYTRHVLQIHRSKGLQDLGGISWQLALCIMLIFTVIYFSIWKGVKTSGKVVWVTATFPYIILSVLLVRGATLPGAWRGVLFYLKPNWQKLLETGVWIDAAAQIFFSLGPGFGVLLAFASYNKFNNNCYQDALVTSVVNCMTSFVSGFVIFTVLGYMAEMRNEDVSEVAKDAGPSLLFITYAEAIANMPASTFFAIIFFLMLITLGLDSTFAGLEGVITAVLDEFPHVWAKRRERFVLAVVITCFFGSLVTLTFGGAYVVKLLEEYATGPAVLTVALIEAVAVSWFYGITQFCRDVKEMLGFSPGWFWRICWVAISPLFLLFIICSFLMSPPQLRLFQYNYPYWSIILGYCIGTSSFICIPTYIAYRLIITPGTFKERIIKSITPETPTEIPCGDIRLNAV
# [3] = target: T2, human dopamine transporter (Homo sapiens, UniProt Q01959); test: inhibition of [125I]RTI-55 binding to hDAT in HEK293 cell membranes; conditions: HEK-hDAT cells
# T2 construct: expressed in transfected cells; host or cells: HEK293
# T2 sequence (Q01959 whole entry): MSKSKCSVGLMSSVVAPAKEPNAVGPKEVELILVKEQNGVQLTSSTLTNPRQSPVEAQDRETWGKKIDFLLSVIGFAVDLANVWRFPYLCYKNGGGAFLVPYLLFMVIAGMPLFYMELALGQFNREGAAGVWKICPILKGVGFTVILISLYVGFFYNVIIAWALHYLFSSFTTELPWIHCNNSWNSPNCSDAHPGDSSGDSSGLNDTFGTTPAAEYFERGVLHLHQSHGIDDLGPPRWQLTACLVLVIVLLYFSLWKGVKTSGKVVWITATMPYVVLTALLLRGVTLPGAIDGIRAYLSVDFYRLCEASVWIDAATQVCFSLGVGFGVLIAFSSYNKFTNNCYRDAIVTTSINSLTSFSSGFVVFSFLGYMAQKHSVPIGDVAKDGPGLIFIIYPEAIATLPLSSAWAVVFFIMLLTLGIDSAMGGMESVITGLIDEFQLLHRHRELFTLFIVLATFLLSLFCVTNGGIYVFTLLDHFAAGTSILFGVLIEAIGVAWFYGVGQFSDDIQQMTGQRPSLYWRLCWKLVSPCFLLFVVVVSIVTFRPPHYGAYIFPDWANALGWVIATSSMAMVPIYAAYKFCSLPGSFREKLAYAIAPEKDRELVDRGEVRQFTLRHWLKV
# [4] = target: T3, human norepinephrine transporter (Homo sapiens, UniProt P23975); type: binding; conditions: HEK-hNET cells
# T3 construct: expressed in transfected cells; host or cells: HEK293
# T3 sequence (P23975 whole entry): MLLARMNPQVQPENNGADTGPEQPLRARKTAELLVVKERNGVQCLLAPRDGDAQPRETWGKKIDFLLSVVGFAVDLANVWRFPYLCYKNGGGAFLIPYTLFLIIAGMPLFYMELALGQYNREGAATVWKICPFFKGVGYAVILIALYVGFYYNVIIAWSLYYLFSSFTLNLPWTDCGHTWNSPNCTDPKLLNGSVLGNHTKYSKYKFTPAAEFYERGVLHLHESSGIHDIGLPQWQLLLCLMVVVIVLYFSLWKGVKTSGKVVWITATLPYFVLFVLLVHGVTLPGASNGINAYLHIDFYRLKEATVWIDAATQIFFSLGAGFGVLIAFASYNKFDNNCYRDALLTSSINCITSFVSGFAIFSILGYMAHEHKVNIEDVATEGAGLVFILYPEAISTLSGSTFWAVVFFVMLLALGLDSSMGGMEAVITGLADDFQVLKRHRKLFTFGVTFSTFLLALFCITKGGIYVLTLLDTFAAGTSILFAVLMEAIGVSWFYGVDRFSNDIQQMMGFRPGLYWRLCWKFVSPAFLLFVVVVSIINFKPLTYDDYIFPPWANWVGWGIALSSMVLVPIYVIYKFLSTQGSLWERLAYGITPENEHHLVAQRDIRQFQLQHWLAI
# [5] = system: extracellular monoaminergic transmitter levels; test: in vivo brain microdialysis in prefrontal cortical and striatal brain areas of freely-moving rats; parameters: species or system rat
# Protocol: Brain dialysates were collected from male Sprague-Dawey rats, which had been chronically implanted with cortical and striatal microdialysis guide cannulae and probes. The effects of different doses of test compound (10 and 30 mg/kg, administered subcutaneously) or vehicle (saline, 0.9% NaCl) were evaluated in three 50 baseline samples and eight consecutive 50 minute post-administration samples. The levels of dopamine, norepinephrine and serotonin for the two different brain areas were analyzed using HPLC/PCD analysis to determine any effects of the compound.
# In FIGS. 4 and 5, results are expressed as the average percentage change compared to the individual's average baseline value. The arrow indicates the time of administration of test compound. The average value (and corresponding S.E.M.) are shown for each 50 minute sample period of n=12 rats for each group (NB: individual data points may be based on fewer samples owing to incidental loss of dialysate samples).
# [6] = 1.0 mg/kg IP daily (d-amphetamine sulfate), vs vehicle
SMILES,"locomotor, rearing and stereotypical activities ([1]; 2 mg/kg SC, relative to vehicle controls)","locomotor, rearing and stereotypical activities (wild-type mice)",number of sessions (trials) required to reach criteria in Phase II (Long-Evans rats; [6]),percent accuracy during Phase II reversal training (Long-Evans rats; [6]),"locomotor, rearing and stereotypical activities ([1]; 100 mg/kg SC, compared with 2 mg/kg amphetamine)","locomotor, rearing and stereotypical activities ([1]; 10, 30, 100 mg/kg SC single injection, 90 min post-injection)",Hill coefficient [2],Hill coefficient [3],Hill coefficient [4],"extracellular neurotransmitter levels (dopamine, norepinephrine, serotonin) ([5]; 10 mg/kg s.c., striatum and prefrontal cortex)",extracellular dopamine concentrations in the striatum ([5]; 30 mg/kg s.c.),extracellular norepinephrine concentrations in the prefrontal cortex ([5]; 30 mg/kg s.c.),other transmitters investigated (extracellular levels) ([5]; 30 mg/kg s.c.),"percent accuracy during Phase II reversal training (Long-Evans rats; 3.0 mg/kg IP daily, one hour prior to training, vs vehicle)","number of sessions (trials) required to reach criteria in Phase II (Long-Evans rats; 3.0 mg/kg IP daily, vs vehicle)","percent accuracy during Phase II reversal training (Long-Evans rats; 10.0 mg/kg IP daily, one hour prior to training)","number of sessions (trials) required to reach criteria in Phase II (Long-Evans rats; 10.0 mg/kg IP daily, vs vehicle)","percent accuracy during Phase II reversal training (Long-Evans rats; 30.0 mg/kg IP daily, one hour prior to training, vs vehicle)","number of sessions (trials) required to reach criteria in Phase II (Long-Evans rats; 30.0 mg/kg IP daily, vs vehicle)"
"C[C@H](N)Cc1ccccc1 [amphetamine, d-amphetamine sulfate, reference compound]",decreased them in KO animals,"increased locomotor, rearing and stereotypical activities",needed fewer trials to reach criterion levels of performance,better accuracy scores,–,–,–,–,–,–,–,–,–,–,–,–,–,–,–
"NC(=O)OC[C@H](N)Cc1ccccc1 [Test Compound, O-carbamoyl-(D)-phenylalaninol]",–,–,–,–,suppressed activities more efficiently than amphetamine,selectively reduced activity of the KO mice in a dose-dependent manner; also recorded: reduced activities in a dose-dependent fashion,−2.28 ± 0.05,−0.77 ± 0.12,−1.45 ± 0.34,no consistent effect,increases,increases,without having any significant affect,better accuracy scores,needed fewer trials to reach criterion levels of performance,"lower than the 3.0, and 30.0 dose of test compound",did not differ from the vehicle group,better accuracy scores,needed fewer trials to reach criterion levels of performance
